Data as given in patent US11117888B2, “Irreversible inhibitors of pyruvate kinase M2 and the use thereof” (China Medical University, priority 2020, dated 2021).

Legend:
[1] = test system: PKM2, EGFR, Stat3, β-catenin in PC-9 cells; assay: Immunoblot analysis of oncogenic effectors in PC-9 cells; assay type: cell-based, human; conditions: Western blot, 24 hours
Experimental: Immunoblot analysis. PC-9 cells were seeded into 6 cm dish at a concentration of 5×10^5 cells/mL. After 24 hours, cells were treated with 0-1 μM compound 1 or DMSO alone for 24 hours. The cells were harvested at 24 hours, and protein extractions were carried out. The protein lysate was subjected to 10% SDS-PAGE and transferred to a nitrocellulose membrane (GE Healthcare Life Sciences). Protein expression was analyzed by Western blotting using primary antibodies against PKM2, EGFR, p-STAT3, STAT3, p-β-catenin (Cell Signaling Technology), β-catenin (Santa Cruz Biotechnology) and β-actin (Sigma-Aldrich), followed by incubation with horseradish peroxidase-conjugated secondary (Jackson ImmunoResearch Laboratories). Specific proteins were detected by chemiluminescence using ECL Plus Western Blotting Detection Reagents (GE Healthcare Biosciences).

[2] = test system: H157 lung cancer cells; assay: MTT cell viability assay, H157; assay type: cell-based; conditions: Homo sapiens, NCI-H157, H157 (wild type EGFR), 24 hours
From the text: (§1) Cell lines, cell culture, biochemical reagents, and antibodies. MiaPaCa-2, AsPC-1, and Panc-1 human pancreatic cancer cells, MCF-7 and MDA-MB-231 breast cancer cells, SCC4 and SCC2059 oral cancer cells, PC-3 and LNCaP prostate cancer cells, H157, H460, H1975, PC-9 and H1650 lung cancer cells were obtained from the American Type Culture Collection (ATCC, Manassas, Va.). All these cells were maintained in recommended growth medium (RPMI 1640 or DMEM) supplemented with 10% fetal bovine serum (FBS) (Invitrogen, Carlsbad, Calif., USA) and antibiotics at 37° C. in a humidified incubator containing 5% CO2. For SILAC experiments, PC-9 cells were grown in SILAC DMEM medium (Thermo Fisher) supplemented with 10% dialyzed FBS and 100 μg/mL each of unlabeled L-arginine and L-lysine (light medium) or ^13C/^15N stable isotope-labeled L-arginine and L-lysine (heavy medium). […]
(§2) Cell viability assays. Drug effects on cell viability was assessed by 3-(4,5-dimethylthiazol-2-yl)-2,5-diphenyltetrazolium bromide ([…]) assays. […] The medium was then removed from each well and replaced with DMSO to dissolve the reduced MTT dye for subsequent colorimetric measurement of absorbance at 560 nm. Cell viabilities are expressed as percentages of viable cells relative to the corresponding vehicle-treated control group.

[3] = biological target: PKM2 (Homo sapiens, UniProt P14618); assay: Recombinant PKM2 kinase activity assay; assay type: biochemical; design: purchased Sigma-Aldrich SAE0021; conditions: after 20 min of exposure
Experimental: As this cell-based kinase assay could not rule out the involvement of PKM1, we examined the abilities of compound 1 to inhibit the kinase activity of recombinant PKM2 (SAE0021, Sigma-Aldrich) versus recombinant PKM1 (SRP0415, Sigma-Aldrich) using a commercial PKM assay kit. […] In brief, PC-9 cells were exposed to different concentrations of compound 2 in the presence of compound 1 (1 μM) for 1 hour, lysed, and the cell lysates were treated with biotin-azide, followed by streptavidin bead pulldown under the aforementioned conditions. […] The antigen of compound 1 was prepared by coupling this small molecule with cysteine residues of ovalbumin, which was then used for immunization in guinea pigs.
Pyruvate kinase activity assays. PC-9 cells were seeded into 6 cm dishes at a concentration of 5×10^5 cells/mL. After 24 hours, cells were treated with 0.25 μM compound 1 or DMSO for 6 hours. The pyruvate kinase activity of compound 1-treated PC-9 and vehicle control cells was measured by using a commercial colorimetric assay kit from BioVision (Milpitas, Calif., USA) according to the manufacturer's protocol. In addition, to verify the specificity of compound 1 toward PKM2 versus PKM1, the inhibition of the kinase activity of recombinant PKM1 (SRP0415, Sigma-Aldrich) and recombinant PKM2 (SAE0021, Sigma-Aldrich) by compound 1 was conducted using the aforementioned assay kit.

[4] = test system: PC-9 cells; assay: Seahorse Glycolysis Stress assay (ECAR and OCR); assay type: cell-based, human
From the text: In light of the role of PKM2 in promoting glycolysis, we hypothesized that the antitumor activity of compound 1 might, in part, be attributable to its ability to reverse the glycolytic phenotype (i.e., Warburg effect) of cancer cells. Accordingly, we examined the effects of compound 1 on the extracellular acidification rate (ECAR) and cellular oxygen consumption rate (OCR) in PC-9 cells, which represent key bioenergetic parameters of glycolysis (lactate production) and mitochondrial respiration (oxidative phosphorylation), respectively, using a commercial kit (Agilent Seahorse XF Glycolysis Stress Test Kit). In the ECAR measurement, glucose, oligomycin (an ATP synthetase inhibitor), and 2-deoxyglucose (2-DG; a hexokinase/glycolysis inhibitor) were added in tandem to glucose-starved cells at different time intervals to activate or interfere with glycolysis, thereby allowing the calculation of the glycolytic flux and glycolytic capacity. […] Meanwhile, the OCR response, a parameter for oxidative phosphorylation, was concurrently monitored. […] It is noteworthy that when glucose was added to the basal medium, there was a decrease in the OCR in the control group. This phenomenon was previously referred to as the “Crabtree effect”, i.e., when glucose is added to activate glycolysis, it might be more favorable for cells to generate ATP through substrate-level phosphorylation, thereby reducing the need of oxidative phosphorylation. However, this glucose-induced drop in OCR became less apparent in the presence of compound 1, which might be associated with the ability of compound 1 to block glycolysis.
Glycolysis Stress assay. Extracellular acidification rate (ECAR) and oxygen consumption rate (OCR) were measured using a Seahorse Bioscience XF96 extracellular flux analyzer (Seahorse Bioscience) according to the manufacturer's protocol. PC-9 ells (5×10^4) were seeded in 96 Seahorse XF Cell Culture Microplate with normal growth medium 24 hours before treatment with compounds. The cells were treated with DMSO or compound 1 for 4 hours at 37° C. under 5% CO2 atmosphere. […]

[5] = test system: MCF-7 breast cancer cells; assay: MTT cell viability assay, MCF-7; assay type: cell-based; conditions: Homo sapiens, MCF7; MCF-7, MTT, 24 hours
From the text: as §1, §2

Sequence of PKM2 (P14618 whole entry): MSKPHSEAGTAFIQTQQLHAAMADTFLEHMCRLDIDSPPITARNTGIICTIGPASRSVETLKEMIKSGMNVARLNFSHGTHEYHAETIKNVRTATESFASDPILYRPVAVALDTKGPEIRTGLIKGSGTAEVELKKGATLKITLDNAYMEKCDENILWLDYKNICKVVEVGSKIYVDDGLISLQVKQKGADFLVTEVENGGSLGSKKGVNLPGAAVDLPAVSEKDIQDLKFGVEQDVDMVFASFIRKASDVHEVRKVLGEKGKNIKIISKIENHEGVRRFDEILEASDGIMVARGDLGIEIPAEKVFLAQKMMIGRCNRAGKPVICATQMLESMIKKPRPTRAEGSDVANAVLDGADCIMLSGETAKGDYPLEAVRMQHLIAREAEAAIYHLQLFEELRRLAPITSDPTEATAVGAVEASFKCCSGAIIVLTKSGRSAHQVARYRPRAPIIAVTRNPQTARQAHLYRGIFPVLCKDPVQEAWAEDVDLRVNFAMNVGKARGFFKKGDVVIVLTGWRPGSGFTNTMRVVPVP

IC50 [2]: > 2000 nM
inhibition of kinase activity of recombinant PKM2 [3]: suppress the kinase activity of PKM2
IC50 [5]: 1000 nM
SMILES: C#CC(=O)Nc1ccc(-n2nc(CCC(=O)NC)cc2-c2ccc(-c3ccc(C(F)(F)F)cc3)cc2)cc1 [compound 1, N-(4-(3-(3-(Methylamino)-3-oxopropyl)-5-(4′-(trifluoromethyl)-[1,1′-biphenyl]-4-yl)-1H-pyrazol-1-yl)phenyl)propiolamide]
expression and/or phosphorylation of PKM2, EGFR, Stat3, β-catenin [1]: downregulated the expression of PKM2 and EGFR, accompanied by parallel decreases in the phosphorylation and expression of Stat3 and β-catenin
glycolytic acidification (ECAR) ([4]; 0.25-1 μM, 4 hours): suppressed the glycolytic acidification in a concentration-dependent manner
non-glycolytic acidification (ECAR) ([4]; 0.25-1 μM, 4 hours): no appreciable effect
oxygen consumption rate (OCR), basal state ([4]; prior to glucose supplementation, relative to DMSO): increase oxygen consumption in the basal state
